Source: patent US20070219159A1, “CYCLODEXTRIN COMPOSITIONS AND METHODS OF TREATING VIRAL INFECTIONS” (priority 2002, published 2007)
Like-named read-outs stand apart in the source and are kept apart here.

Experiments:
[1] = Aqueous solubility; assay type: physicochemical
[2] = tested on: dlsptk (an ACV-resistant, tk deletion mutant of HSV-1); assay type: cell-based; details: MOI 10
[3] = tested on: Vero cells; details: 48 hours
[4] = tested on: Vero cells; assay: Cell viability by LDH release assay; assay type: cell-based; details: 48 hours
Procedure: FIG. 3 depicts the effects of ACV alone (400 μg/ml) and β-CD alone (8 mg/ml) on the viability of Vero cells as monitored by the LDH release assay after 24 hours of treatments (A); and after 48 hours of treatments (B). All data represents means+SD of two separate experiments.
Cell viability assay. Cell viability was determined fluorometrically by estimating the release of LDH into the media (Moran and Schnellman, 1996). LDH activity was based on the reduction of pyruvate to lactate. The concomitant oxidation of NADH results in a decrease in the fluorescence emission at 450 nm with excitation wavelength 355 nm, and the rate of disappearance of NADH is indicative of LDH activity.
To study the effects of formulations on viability of preformed monolayers, 3 to 4×10^6 Vero cells were added to 1× MEM-5% FBS in T75 flasks. […] Used media were replaced with 15 ml of treatment media, containing 5× MEM-FBS diluted to 1× with water (control), acyclovir stock (400 μg/ml), or β-CD stock (8 mg/ml in water). […]
Reaction solution was made fresh for each experiment by mixing 0.4 ml of 16.2 mM pyruvate with 10 ml of 0.2 mM NADH in phosphate buffer (pH 7.5). […] The amount of LDH calculated for either condition was then compared with and expressed as a percentage of the total LDH present.
Used media were replaced with 15 ml/flask or 2.5 ml/well of treatment media, containing 5× MEM-FBS diluted to 1× with water (control), and […]CD stock. […] Live cells are distinguished by the presence of intracellular esterase activity, as determined by the enzymatic conversion of calcein-AM (nonfluorescent) to calcein (green fluorescence). EthD-1 enters cells with damaged cell membranes and binds to nucleic acids producing red fluorescence to identify dead cells. […] For LDH assays, cells were trypsinized, resuspended in fresh 1× medium, kept at 37° C.-5% CO2 atmosphere, and total LDH present in cells and medium was determined after lysing the cells with 350 μM digitonin. The amount of LDH calculated for either condition was then compared with and expressed as a percentage of the total LDH present. […]

[5] = tested on: HCV; assay: In vitro anti-HCV assay in HCV RNA-replicating cell line AVA5; assay type: cell-based; details: HCV
Procedure: The antiviral activity of test compounds were assayed in the stably HCV RNA-replicating cell line. AVA5, derived by transfection of the human hepatoblastoma cell line, Huh^7 (Blight et al., 2000). Experimental drugs were added to dividing cultures once daily for three days. Media was changed with each addition of compound. Cultures generally started the assays at 50% confluence and reached confluence during the last day of treatment. HCV RNA and cellular β-actin RNA levels were assessed 24 hours after the last dose of compound using dot blot hybridization. Assays were conducted using a single dose of test compound (in triplicate cultures).
Both HCV and β-actin RNA levels in the treated cultures were expressed as a percentage of the mean levels of RNA detected in untreated cultures. β-actin RNA levels were used both as a measure of toxicity, and to normalize the amount of cellular RNA in each sample. A level of 30% or less HCV RNA (relative to control cultures) was considered to be a positive antiviral effect, and a level of 50% or less β-actin RNA (relative to control cultures) is considered to be a cytotoxic effect.
Dividing cultures of AVAB cells were treated once daily for three days (media was changed with each addition of compound) with 4 concentrations of test compounds (3 cultures per concentration). A total of 6 untreated control cultures, and triplicate cultures treated with 10, 3, and 1 IU/ml α-interferon (active antiviral with no cytotoxicity), and 100, 10, and 1 μM ribavir ([…]) served as controls. HCV RNA and cellular β-actin FNA levels were assessed 24 hours after the last dose of compound using dot blot hybridization. β-actin RNA levels were used to normalize the amount of cellular RNA in each sample.
Toxicity analyses were performed on separate plates from those used for the antiviral assays. Cells for the toxicity analyses were cultured and treated with test compounds with the same schedule and under identical culture conditions used for the antiviral evaluations. Each compound was tested at 4 concentrations, each in triplicate cultures. Uptake of neutral red dye was used to determine the relative level of toxicity 24 hours following the last treatment. The absorbance of internalized dye at […] (A510) was used for the quantitative analysis. Values in test cultures were compared to 9 cultures of untreated cells maintained on the same plate as the test cultures.
Assays similar to those described above were conducted.

[6] = tested on: d27-lacZ1 (β-gal HSV); assay: Semi-quantitative PCR of intracellular HSV DNA (HSV entry); details: MOI 0.01 or 0.1, β-CD 7.2 mg/ml pre-, 5.4 mg/ml post-infection, versus untreated infected cells
[7] = tested on: HSV-1 strain KOS1.1; assay type: cell-based; details: for yield of cell-free and cell-associated virus: 24 hours post-infection, MOI 50, BCD 7.2 mg/ml, ACV 400 μg/ml or both, pre, during and post infection treatment (FIG. 1)
[8] = tested on: HSV-1 strain KOS1.1; assay: CPE reduction assay in Vero cells, HSV-1; assay type: cell-based

OC[C@H]1O[C@@H]2O[C@H]3[C@H](O)[C@@H](O)[C@@H](O[C@H]4[C@H](O)[C@@H](O)[C@@H](O[C@H]5[C@H](O)[C@@H](O)[C@@H](O[C@H]6[C@H](O)[C@@H](O)[C@@H](O[C@H]7[C@H](O)[C@@H](O)[C@@H](O[C@H]8[C@H](O)[C@@H](O)[C@@H](O[C@H]1[C@H](O)[C@H]2O)O[C@@H]8CO)O[C@@H]7CO)O[C@@H]6CO)O[C@@H]5CO)O[C@@H]4CO)O[C@@H]3CO [BCD, β-cyclodextrin]
solubility ([1]; read-out: concentration at which solubility becomes a limiting issue): > 8000 µg/mL
solubility ([1]; water, read-out: concentrations at which insoluble in water): > 10000 µg/mL
reduction of ACV-resistant virus yield ([2]; 6.4 mg/ml BCD, 24 hours): approximately 10^3 PFU
effect on yield of acyclovir-resistant dlsptk virus (FIG. 2) ([2]; 20 μM (4.5 μg/ml) ACV or 6.4 mg/ml β-CD for 24 hours): lowered the yield
cell viability (normalized to control cells) ([3]; 5.5 mg/ml BCD): 91.23%
cell viability (normalized to control cells) ([3]; 7.2 mg/ml BCD): 84.89%
cytotoxicity ([3]; maximum concentration of BCD): < 15%
cell viability (LDH assay) ([4]; 8.0 mg/ml BCD): 68.57%
decrease in cell viability ([4]; β-CD 8 mg/ml, Vero cells): 30-40%
S.I. for HCV [5]: 1.13
amount of intracellular viral DNA / viral entry [6]: did not significantly alter viral entry
amount of intracellular viral DNA / viral entry ([6]; listed as β-CD): No significant differences
reduction of KOS1.1 virus yield at 24 hours ([7]; 6.4 mg/ml BCD, MOI 10, post-infection treatment): approximately 10^3 fold
yield of cell-free and cell-associated virus [7]: more effective at reducing virus numbers than ACV alone
yield of cell-free and cell-associated virus ([7]; listed as β-CD): reduced to a greater extent by β-CD than by a fairly high concentration of acyclovir
effect on yield of acyclovir-sensitive HSV KOS1.1 (FIG. 2) ([7]; MOI 10, 20 μM ACV or 6.4 mg/ml β-CD for 24 hours): lowered the yield
protection of Vero cells by inhibition of viral CPE ([8]; HSV-1, MOI 0.001 and 0.1, BCD 7-8 mg/ml): almost complete protection
inhibition of infection, direct microscopy and crystal violet staining ([8]; HSV-1, MOI 2.0 (data not shown)): inhibited infection
anti-herpes effects at high multiplicity of infection ([8]; HSV-1, MOI >50, BCD 7-8 mg/ml): exhibited anti-herpes effects
anti-HSV activity compared with acyclovir ([8]; β-CD 7.2 mg/ml): comparable to acyclovir in the range of 200 to 400 μg/ml
